The source of these data is patent publication US6638956B2, “Pesticidal 1-arylpyrazoles” (Rhone-Poulenc, Inc., priority 1996, dated 2003).

The structures appear in SMILES notation. Values joined by “and” are separate entries in the source; they are usually repeats but may differ in a detail not shown here. Identical values can stand only once.

Usually melting point stands for the temperature, or range, at which the solid turns liquid.

`CNC(=O)ON=Cc1nn(-c2c(Cl)cc(C(F)(F)F)cc2Cl)c(N)c1[S+](C)[O-]` (stereo not drawn): the melting point lay within 146 to 147 °C.

`C[S+]([O-])c1c(C=NO[Si](C)(C)C(C)(C)C)nn(-c2c(Cl)cc(C(F)(F)F)cc2Cl)c1N` (stereo not drawn): the melting point was 150 to 154 °C.

Turning to `C[S+]([O-])c1c(C=NO)nn(-c2c(Cl)cc(C(F)(F)F)cc2Cl)c1N` (stereo not drawn) [Compound 1, 5-Amino-1-[2,6-dichloro-4-(trifluoromethyl)phenyl]-4-methylsulfinyl-1H-pyrazole-3-carboxaldehyde oxime], the melting point is 219 to 221 °C (dec.).

Turning to `CCNc1c([S+](C)[O-])c(C=NO)nn1-c1c(Cl)cc(C(F)(F)F)cc1Cl` (stereo not drawn) [Compound 2, 1-[2,6-Dichloro-4-(trifluoromethyl)phenyl]-5-ethylamino-4-methylsulfinyl-1H-pyrazole-3-carboxaldehyde oxime], the melting point lay in the range of 158 to 161 °C.

For `CNc1c([S+](C)[O-])c(C=NO)nn1-c1c(Cl)cc(C(F)(F)F)cc1Cl` (stereo not drawn) [Compound 3, 1-[2,6-Dichloro-4-(trifluoromethyl)phenyl]-5-methylamino-4-methylsulfinyl-1H-pyrazole-3-carboxaldehyde oxime], the melting point came to 162 °C.

`C[S+]([O-])c1c(C=NO)nn(-c2c(Cl)cc(OC(F)(F)F)cc2Cl)c1N` (stereo not drawn) [Compound 4, 5-Amino-1-[2,6-dichloro-4-(trifluoromethoxy)phenyl]-4-methylsulfinyl-1H-pyrazole-3-carboxaldehyde oxime] came in with a melting point of 144 to 146 °C.

`CC[S+]([O-])c1c(C=NO)nn(-c2c(Cl)cc(C(F)(F)F)cc2Cl)c1N` (stereo not drawn) [Compound 5, 5-Amino-1-[2,6-dichloro-4-(trifluoromethyl)phenyl]-4-ethylsulfinyl-1H-pyrazole-3-carboxaldehyde oxime] had a melting point of 195 °C.

The molecule `Nc1c(SC(F)(F)F)c(C=NO)nn1-c1c(Cl)cc(C(F)(F)F)cc1Cl` [Compound 6, 5-Amino-1-[2,6-dichloro-4-(trifluoromethyl)phenyl]-4-trifluoromethylthio-1H-pyrazole-3-carboxaldehyde oxime] came in with a melting point of 163 to 169 °C.

As to `Nc1c(SC(F)F)c(C=NO)nn1-c1c(Cl)cc(C(F)(F)F)cc1Cl` [Compound 7, 5-Amino-1-[2,6-dichloro-4-(trifluoromethyl)phenyl]-4-difluoromethylthio-1H-pyrazole-3-carboxaldehyde oxime], the melting point lay in the range of 146 to 152 °C.

In turn, `CSc1c(C=NO)nn(-c2c(Cl)cc(C(F)(F)F)cc2Cl)c1N` [Compound 8, 5-Amino-1-[2,6-dichloro-4-(trifluoromethyl)phenyl]-4-methylthio-1H-pyrazole-3-carboxaldehyde oxime] returned a melting point of 179 to 181 °C.

Take `CC(=O)ON=Cc1nn(-c2c(Cl)cc(C(F)(F)F)cc2Cl)c(N)c1[S+](C)[O-]` (stereo not drawn) [Compound 10, 5-Amino-1-[2,6-dichloro-4-(trifluoromethyl)phenyl]-4-methylsulfinyl-1H-pyrazole-3-carboxaldehyde O-(acetyl)oxime]: the melting point is 130 to 134 °C.

The molecule `Cc1ccccc1C(=O)ON=Cc1nn(-c2c(Cl)cc(C(F)(F)F)cc2Cl)c(N)c1[S+](C)[O-]` (stereo not drawn) [Compound 11, 5-Amino-1-[2,6-dichloro-4-(trifluoromethyl)phenyl]-4-methylsulfinyl-1H-pyrazole-3-carboxaldehyde O-(2-methylbenzoyl)oxime] yielded a melting point of 107 to 110 °C.

With `CCOC(=O)C(C)C(=O)ON=Cc1nn(-c2c(Cl)cc(C(F)(F)F)cc2Cl)c(N)c1[S+](C)[O-]` (stereo not drawn) [Compound 13, 5-Amino-1-[2,6-dichloro-4-(trifluoromethyl)phenyl]-4-methylsulfinyl-1H-pyrazole-3-carboxaldehyde O-[2-(ethoxycarbonyl)propionyl]oxime], the melting point lay within 52 to 54 °C.

In turn, `CSc1c(C=NOC(C)=O)nn(-c2c(Cl)cc(C(F)(F)F)cc2Cl)c1N` [Compound 14, 5-Amino-1-[2,6-dichloro-4-(trifluoromethyl)phenyl]-4-methylthio-1H-pyrazole-3-carboxaldehyde O-(acetyl)oxime] displayed a melting point of 205.5 to 206.5 °C.

In the case of `COC(=O)ON=Cc1nn(-c2c(Cl)cc(C(F)(F)F)cc2Cl)c(N)c1SC` [Compound 15, 5-Amino-1-[2,6-dichloro-4-(trifluoromethyl)phenyl]-4-methylthio-1H-pyrazole-3-carboxaldehyde O-(methoxycarbonyl)oxime], the melting point lay in the range of 171 to 173 °C.

Consider `CS(=O)(=O)c1c(C=NO)nn(-c2c(Cl)cc(C(F)(F)F)cc2Cl)c1N` [Compound 16, 5-Amino-1-[2,6-dichloro-4-(trifluoromethyl)phenyl]-4-methylsulfonyl-1H-pyrazole-3-carboxaldehyde oxime], for which the melting point is 209.5 to 211 °C (dec.).

In the case of `CON=Cc1nn(-c2c(Cl)cc(C(F)(F)F)cc2Cl)c(N)c1[S+](C)[O-]` (stereo not drawn) [Compound 17, 5-Amino-1-[2,6-dichloro-4-(trifluoromethyl)phenyl]-4-methylsulfinyl-1H-pyrazole-3-carboxaldehyde O-(methyl)oxime], the melting point came out at 80 °C.

On to `C[S+]([O-])c1cn(-c2c(Cl)cc(C(F)(F)F)cc2Cl)nc1C=NO` (stereo not drawn) [Compound 20, 1-[2,6-Dichloro-4-(trifluoromethyl)phenyl]-4-methylsulfinyl-1H-pyrazole-3-carboxaldehyde oxime], for which the melting point fell in the range of 239 to 240 °C.

For `N=C(NO)c1nn(-c2c(Cl)cc(C(F)(F)F)cc2Cl)c(C=O)c1SC(F)(F)F` [Compound 22, 1-[2,6-Dichloro-4-(trifluoromethyl)phenyl]-5-formyl-N-hydroxy-4-trifluoromethylthio-1H-pyrazole-3-carboximidamide], the melting point was in the range of 72 to 75 °C.

Consider `N=C(NO)c1nn(-c2c(Cl)cc(C(F)(F)F)cc2Cl)c(C=NO)c1SC(F)(F)F` [Compound 23, 1-[2,6-Dichloro-4-(trifluoromethyl)phenyl]-N-hydroxy-5-hydroxyiminomethyl-4-trifluoromethylthio-1H-pyrazole-3-carboximidamide], for which the melting point was 68 to 72 °C.

Molecule `CC(C)ON=Cc1nn(-c2c(Cl)cc(C(F)(F)F)cc2Cl)c(N)c1[S+](C)[O-]` (stereo not drawn) [Compound 24, 5-Amino-1-[2,6-dichloro-4-(trifluoromethyl)phenyl]-4-methylsulfinyl-1H-pyrazole-3-carboxaldehyde O-(isopropyl)oxime] had a melting point of 128 to 130 °C.

As for `CSc1c(C=NO)nn(-c2c(Cl)cc(C(F)(F)F)cc2Cl)c1C` [Compound 29, 1-[2,6-Dichloro-4-(trifluoromethyl)phenyl]-5-methyl-4-methylthio-1H-pyrazole-3-carboxaldehyde oxime], the melting point was in the range of 160 to 162.5 °C.

Molecule `Cc1c([S+](C)[O-])c(C=NO)nn1-c1c(Cl)cc(C(F)(F)F)cc1Cl` (stereo not drawn) [Compound 30, 1-[2,6-Dichloro-4-(trifluoromethyl)phenyl]-5-methyl-4-methylsulfinyl-1H-pyrazole-3-carboxaldehyde oxime] showed a melting point of 210 to 214 °C.

Consider `C[S+]([O-])c1c(C=NO)nn(-c2ncc(C(F)(F)F)cc2Cl)c1N` (stereo not drawn) [Compound 32, 5-Amino-1-[3-chloro-5-(trifluoromethyl)-2-pyridinyl]-4-methylsulfinyl-1H-pyrazole-3-carboxaldehyde oxime], for which the melting point fell in the range of 195.5 to 196.5 °C.

Regarding `CCSc1c(C=NO)nn(-c2c(Cl)cc(C(F)(F)F)cc2Cl)c1C` [Compound 33, 1-[2,6-Dichloro-4-(trifluoromethyl)phenyl]-4-ethylthio-5-methyl-1H-pyrazole-3-carboxaldehyde oxime], the melting point was 155 to 157 °C.

Regarding `CC[S+]([O-])c1c(C=NO)nn(-c2c(Cl)cc(C(F)(F)F)cc2Cl)c1C` (stereo not drawn) [Compound 34, 1-[2,6-Dichloro-4-(trifluoromethyl)phenyl]-4-ethylsulfinyl-5-methyl-1H-pyrazole-3-carboxaldehyde oxime], the melting point is 210 to 213 °C.

For the molecule `CSc1c(C=NO)nn(-c2c(Cl)cc(C(F)(F)F)cc2Cl)c1N(C)C` [Compound 36, 1-[2,6-Dichloro-4-(trifluoromethyl)phenyl]-5-dimethylamino-4-methylthio-1H-pyrazole-3-carboxaldehyde oxime], the melting point lay within 178 to 181 °C.

Take `CC[S+]([O-])c1c(C=NO)nn(-c2c(Cl)cc(OC(F)(F)F)cc2Cl)c1N` (stereo not drawn) [Compound 37, 5-Amino-1-[2,6-dichloro-4-(trifluoromethoxy)phenyl]-4-ethylsulfinyl-1H-pyrazole-3-carboxaldehyde oxime]: the melting point was in the range of 204 to 206 °C.

In turn, `Nc1c(C(F)(F)F)c(C=NO)nn1-c1c(Cl)cc(C(F)(F)F)cc1Cl` [Compound 38, 5-Amino-1-[2,6-dichloro-4-(trifluoromethyl)phenyl]-4-trifluoromethyl-1H-pyrazole-3-carboxaldehyde oxime] registered a melting point of 136 to 146 °C.

For `CC(=NO)c1nn(-c2c(Cl)cc(C(F)(F)F)cc2Cl)c(N)c1[S+](C)[O-]` (stereo not drawn) [Compound 39, 3-Acetyl-5-amino-1-[2,6-dichloro-4-(trifluoromethyl)phenyl]-4-methylsulfinyl-1H-pyrazole oxime], the melting point lay in the range of 68 to 71 °C.

`CC[S+]([O-])c1c(C(=N)NO)nn(-c2c(Cl)cc(C(F)(F)F)cc2Cl)c1N` (stereo not drawn) [Compound 42, 5-Amino-1-[2,6-dichloro-4-(trifluoromethyl)phenyl]-N-hydroxy-4-ethylsulfinyl-1H-pyrazole-3-carboximidamide]: the melting point lay within 186 to 189 °C.

With `CCSc1c(C(=N)NO)nn(-c2c(Cl)cc(C(F)(F)F)cc2Cl)c1N` [Compound 43, 5-Amino-1-[2,6-dichloro-4-(trifluoromethyl)phenyl]-N-hydroxy-4-ethylthio-1H-pyrazole-3-carboximidamide], the melting point lay within 170 to 175 °C.

In the case of `C[S+]([O-])c1c(C(=N)NO)nn(-c2c(Cl)cc(C(F)(F)F)cc2Cl)c1N` (stereo not drawn) [Compound 44, 5-Amino-1-[2,6-dichloro-4-(trifluoromethyl)phenyl]-N-hydroxy-4-methylsulfinyl-1H-pyrazole-3-carboximidamide], the melting point is 225 to 227 °C and 225 to 226 °C.
